Experimental findings from patent US9072293B2, “Cyclopropenes and method for applying cyclopropenes to agricultural products or crops” (Erum Biotechnologies Inc., priority 2010, dated 2015) are described below.

Several values for one entry are separate records, joined by “and”; a condition that tells them apart may be missing. Identical values can stand only once. Some results are limits rather than exact numbers.

Test system in the first data set: not listed separately
The data set can be described thus: Relative chemical stability of cyclopropenes measured by 1H-NMR. Conditions: 1H-NMR, CDCl3, stored at −20° C. or room temperature; relative to chain length 1. In kind it is physicochemical. From the text: A variety of analysis methods can be used to analyze the derivatives of Formula 6, since the absorbance of cyclopropenes containing an aryl group can be easily measured in the UV range. It can be confirmed that the chemical stability of the derivatives increases, when the length of chains to link an aryl ring to a cyclopropene ring is 2 or more. […] It is supposed that the stability of cyclopropenes increase due to the fact that π electrons of aryl groups affect π electrons of cyclopropenes.
The following Table 1 summarizes the relative chemical stability of cyclopropenes having a chain length of 2, 3, 4 or 5, based on the chemical stability of cyclopropenes having a chain length of 1. In the case of cyclopropene having a chain length of 1, the structure thereof can be confirmed via ^1H-NMR within one hour following synthesis (degraded to a level of 50% or more within one hour at 30° C.). In the case of cyclopropene having a chain length of zero, synthesis thereof was attempted in accordance with the present invention, but was impossible by a conventional method. Meanwhile, in the case of cyclopropenes having a chain length of 2 or more, the structure thereof can be precisely confirmed by ^1H-NMR as well as ^13C-NMR. The stability of these cyclopropenes was measured by ^1H-NMR while NMR cells (CDCl3) were stored at −20° C. or room temperature. In particular, cyclopropenes having chains of 3 or more were so stable that their half-life reached 5 days or longer at −20° C. or lower. In ^1H-NMR analysis, the stability was evaluated by comparing integral values at 4 to 6.5 ppm (1H) and 0.8 to 0.9 ppm (2H), characteristic peaks of 1-alkylcyclopropenes, using a small amount of 1,1,3,3-tetramethylurea (2.80 ppm) as an internal standard. Furthermore, the stability was also qualitatively evaluated by comparing integral value of the peak newly generated adjacent to the peak of the olefin proton of cyclopropene ring, as a 1-alkylcyclopropene compound is decomposed.
For the compound `COc1ccc(CCC2=CC2)cc1` [(2-(4-Methoxyphenyl)ethyl), 1-(2-(4-methoxyphenyl)ethyl)cyclopropene], the “Stability (relative chemical stability, based on cyclopropenes having a chain length of 1)” value is more than 10.

For `COc1ccc(CCCC2=CC2)cc1` [(3-(4-Methoxyphenyl)propyl), 1-(3-(4-methoxyphenyl)propyl)cyclopropene], the “Stability (relative chemical stability, based on cyclopropenes having a chain length of 1)” value is >>10.

`C1=C(CCCOc2ccccc2)C1` [(3-Phenoxypropyl), 1-(3-phenoxypropyl)cyclopropene]: the “Stability (relative chemical stability, based on cyclopropenes having a chain length of 1)” value is >>10.

Another data set concerns tomato. Nature of the data set: Experimental Example 3: Efficacy test on tomato for other drugs (emulsion and oil-based formulation). In kind it is in vivo. Also on record: key: an area in which the surface of tomato was colored in pink was 10% or less; an area in which the surface of tomato was completely colored in red was 10 to 40%; 2: an area in which the surface of tomato was completely colored in red was 40 to 70%; 3: an area in which the surface of tomato was completely colored in red was 70% or more and the bottom area remained green; 4: an area in which the surface of tomato was most colored in red and only a part of (0 to 10%) the bottom area remained green; 5: the surface of tomato did not entirely color in green. Conditions: 1.0 mM Emulsion, Day 0, room temperature (25-30° C.), individual tomatoes n=4. The method, then:
At this time, the tops of tomatoes most early turned red, while the bottoms thereof most lately turned red. For this reason, in order to accurately evaluate the difference in reddening, the coloring evaluated was based on the area of red color, rather than the color of tomatoes. […] Accordingly, the grade level is proportional to the rate at which the tomatoes ripened.
1.0 mM emulsions and oil-based formulations of four agents, i.e., 1-(2-(4-methoxyphenyl)ethyl)cyclopropene, 1-(3-(4-methoxyphenyl)propyl)cyclopropene, 1-(3-phenoxypropyl)cyclopropene and 1-(4-phenoxybutyl)cyclopropene were prepared in accordance with Examples 1 and 2.
The tomatoes were screened in the same manner as in Experimental Example 1 and divided into 9 groups (n=4), i.e., a non-treated group and 4 emulsion-type agent groups and 4 oil-based formulation-type agent groups. Tomatoes were treated with the previously prepared agent using a household sprayer such that the surface thereof was saturated. The tomatoes were stood at room temperature (25-30° C.) for 3 days and a reddening level thereof was evaluated based on grades of 0 to 5.
`COc1ccc(CCC2=CC2)cc1` [(2-(4-Methoxyphenyl)ethyl), 1-(2-(4-methoxyphenyl)ethyl)cyclopropene]: the “reddening level (grade 0 to 5)” value was 0 (an area in which the surface of tomato was colored in pink was 10% or less) (2×) and 1 (an area in which the surface of tomato was completely colored in red was 10 to 40%) and 2 (an area in which the surface of tomato was completely colored in red was 40 to 70%).

For `COc1ccc(CCCC2=CC2)cc1` [(3-(4-Methoxyphenyl)propyl), 1-(3-(4-methoxyphenyl)propyl)cyclopropene], the “reddening level (grade 0 to 5)” value is 0 (an area in which the surface of tomato was colored in pink was 10% or less) (2×) and 1 (an area in which the surface of tomato was completely colored in red was 10 to 40%) and 2 (an area in which the surface of tomato was completely colored in red was 40 to 70%).

`C1=C(CCCOc2ccccc2)C1` [(3-Phenoxypropyl), 1-(3-phenoxypropyl)cyclopropene]: the “reddening level (grade 0 to 5)” value is 0 (an area in which the surface of tomato was colored in pink was 10% or less) (2×) and 1 (an area in which the surface of tomato was completely colored in red was 10 to 40%) and 2 (an area in which the surface of tomato was completely colored in red was 40 to 70%).

The same data set, now with this note: 1.0 mM Emulsion, Day 1, room temperature (25-30° C.), individual tomatoes n=4.
As to `COc1ccc(CCC2=CC2)cc1` [(2-(4-Methoxyphenyl)ethyl), 1-(2-(4-methoxyphenyl)ethyl)cyclopropene], the “reddening level (grade 0 to 5)” value was 1 (an area in which the surface of tomato was completely colored in red was 10 to 40%) (2×) and 3 (an area in which the surface of tomato was completely colored in red was 70% or more and the bottom area remained green) (2×).

Consider `COc1ccc(CCCC2=CC2)cc1` [(3-(4-Methoxyphenyl)propyl), 1-(3-(4-methoxyphenyl)propyl)cyclopropene], for which the “reddening level (grade 0 to 5)” value is 0 (an area in which the surface of tomato was colored in pink was 10% or less) (2×) and 1 (an area in which the surface of tomato was completely colored in red was 10 to 40%) and 2 (an area in which the surface of tomato was completely colored in red was 40 to 70%).

As for `C1=C(CCCOc2ccccc2)C1` [(3-Phenoxypropyl), 1-(3-phenoxypropyl)cyclopropene], the “reddening level (grade 0 to 5)” value is 0 (an area in which the surface of tomato was colored in pink was 10% or less) (2×) and 1 (an area in which the surface of tomato was completely colored in red was 10 to 40%) and 2 (an area in which the surface of tomato was completely colored in red was 40 to 70%).

The data set is the same for the next values; noted with them: 1.0 mM Emulsion, Day 2, room temperature (25-30° C.), individual tomatoes n=4.
`COc1ccc(CCC2=CC2)cc1` [(2-(4-Methoxyphenyl)ethyl), 1-(2-(4-methoxyphenyl)ethyl)cyclopropene]: the “reddening level (grade 0 to 5)” value is 3 (an area in which the surface of tomato was completely colored in red was 70% or more and the bottom area remained green) (2×) and 4 and 5.

For `COc1ccc(CCCC2=CC2)cc1` [(3-(4-Methoxyphenyl)propyl), 1-(3-(4-methoxyphenyl)propyl)cyclopropene], the “reddening level (grade 0 to 5)” value is 1 (an area in which the surface of tomato was completely colored in red was 10 to 40%) (2×) and 2 (an area in which the surface of tomato was completely colored in red was 40 to 70%) and 3 (an area in which the surface of tomato was completely colored in red was 70% or more and the bottom area remained green).

As for `C1=C(CCCOc2ccccc2)C1` [(3-Phenoxypropyl), 1-(3-phenoxypropyl)cyclopropene], the “reddening level (grade 0 to 5)” value was 1 (an area in which the surface of tomato was completely colored in red was 10 to 40%) (2×) and 2 (an area in which the surface of tomato was completely colored in red was 40 to 70%) (2×).

Still in this data set, the particulars now being: 1.0 mM Emulsion, Day 3, room temperature (25-30° C.), individual tomatoes n=4.
As for `COc1ccc(CCC2=CC2)cc1` [(2-(4-Methoxyphenyl)ethyl), 1-(2-(4-methoxyphenyl)ethyl)cyclopropene], the “reddening level (grade 0 to 5)” value was 4 (2×) and 5 (2×).

Take `COc1ccc(CCCC2=CC2)cc1` [(3-(4-Methoxyphenyl)propyl), 1-(3-(4-methoxyphenyl)propyl)cyclopropene]: the “reddening level (grade 0 to 5)” value is 2 (an area in which the surface of tomato was completely colored in red was 40 to 70%) (2×) and 3 (an area in which the surface of tomato was completely colored in red was 70% or more and the bottom area remained green) and 4.

As for `C1=C(CCCOc2ccccc2)C1` [(3-Phenoxypropyl), 1-(3-phenoxypropyl)cyclopropene], the “reddening level (grade 0 to 5)” value was 2 (an area in which the surface of tomato was completely colored in red was 40 to 70%) (2×) and 3 (an area in which the surface of tomato was completely colored in red was 70% or more and the bottom area remained green) (2×).

Staying with this data set, now noted: 1.0 mM Oil-based formulation, Day 0, room temperature (25-30° C.), individual tomatoes n=4.
`COc1ccc(CCC2=CC2)cc1` [(2-(4-Methoxyphenyl)ethyl), 1-(2-(4-methoxyphenyl)ethyl)cyclopropene]: the “reddening level (grade 0 to 5)” value is 0 (an area in which the surface of tomato was colored in pink was 10% or less) (2×) and 1 (an area in which the surface of tomato was completely colored in red was 10 to 40%) and 2 (an area in which the surface of tomato was completely colored in red was 40 to 70%).

For `COc1ccc(CCCC2=CC2)cc1` [(3-(4-Methoxyphenyl)propyl), 1-(3-(4-methoxyphenyl)propyl)cyclopropene], the “reddening level (grade 0 to 5)” value was 0 (an area in which the surface of tomato was colored in pink was 10% or less) (2×) and 1 (an area in which the surface of tomato was completely colored in red was 10 to 40%) and 2 (an area in which the surface of tomato was completely colored in red was 40 to 70%).

Consider `C1=C(CCCOc2ccccc2)C1` [(3-Phenoxypropyl), 1-(3-phenoxypropyl)cyclopropene], for which the “reddening level (grade 0 to 5)” value is 0 (an area in which the surface of tomato was colored in pink was 10% or less) (2×) and 1 (an area in which the surface of tomato was completely colored in red was 10 to 40%) and 2 (an area in which the surface of tomato was completely colored in red was 40 to 70%).

The same data set, now with this note: 1.0 mM Oil-based formulation, Day 1, room temperature (25-30° C.), individual tomatoes n=4.
For `COc1ccc(CCC2=CC2)cc1` [(2-(4-Methoxyphenyl)ethyl), 1-(2-(4-methoxyphenyl)ethyl)cyclopropene], the “reddening level (grade 0 to 5)” value is 1 (an area in which the surface of tomato was completely colored in red was 10 to 40%) (2×) and 2 (an area in which the surface of tomato was completely colored in red was 40 to 70%) and 3 (an area in which the surface of tomato was completely colored in red was 70% or more and the bottom area remained green).

Take `COc1ccc(CCCC2=CC2)cc1` [(3-(4-Methoxyphenyl)propyl), 1-(3-(4-methoxyphenyl)propyl)cyclopropene]: the “reddening level (grade 0 to 5)” value is 0 (an area in which the surface of tomato was colored in pink was 10% or less) (2×) and 1 (an area in which the surface of tomato was completely colored in red was 10 to 40%) and 2 (an area in which the surface of tomato was completely colored in red was 40 to 70%).

For the compound `C1=C(CCCOc2ccccc2)C1` [(3-Phenoxypropyl), 1-(3-phenoxypropyl)cyclopropene], the “reddening level (grade 0 to 5)” value was 0 (an area in which the surface of tomato was colored in pink was 10% or less) (2×) and 1 (an area in which the surface of tomato was completely colored in red was 10 to 40%) and 2 (an area in which the surface of tomato was completely colored in red was 40 to 70%).

Staying with this data set, now noted: 1.0 mM Oil-based formulation, Day 2, room temperature (25-30° C.), individual tomatoes n=4.
`COc1ccc(CCC2=CC2)cc1` [(2-(4-Methoxyphenyl)ethyl), 1-(2-(4-methoxyphenyl)ethyl)cyclopropene]: the “reddening level (grade 0 to 5)” value was 2 (an area in which the surface of tomato was completely colored in red was 40 to 70%) (2×) and 3 (an area in which the surface of tomato was completely colored in red was 70% or more and the bottom area remained green) and 4.

As for `COc1ccc(CCCC2=CC2)cc1` [(3-(4-Methoxyphenyl)propyl), 1-(3-(4-methoxyphenyl)propyl)cyclopropene], the “reddening level (grade 0 to 5)” value was 1 (an area in which the surface of tomato was completely colored in red was 10 to 40%) (2×) and 2 (an area in which the surface of tomato was completely colored in red was 40 to 70%) and 3 (an area in which the surface of tomato was completely colored in red was 70% or more and the bottom area remained green).

On to `C1=C(CCCOc2ccccc2)C1` [(3-Phenoxypropyl), 1-(3-phenoxypropyl)cyclopropene], for which the “reddening level (grade 0 to 5)” value was 0 (an area in which the surface of tomato was colored in pink was 10% or less) (2×) and 2 (an area in which the surface of tomato was completely colored in red was 40 to 70%) and 3 (an area in which the surface of tomato was completely colored in red was 70% or more and the bottom area remained green).

The same data set, now with this note: 1.0 mM Oil-based formulation, Day 3, room temperature (25-30° C.), individual tomatoes n=4.
Turning to `COc1ccc(CCC2=CC2)cc1` [(2-(4-Methoxyphenyl)ethyl), 1-(2-(4-methoxyphenyl)ethyl)cyclopropene], the “reddening level (grade 0 to 5)” value is 3 (an area in which the surface of tomato was completely colored in red was 70% or more and the bottom area remained green) (2×) and 4 and 5.

On to `COc1ccc(CCCC2=CC2)cc1` [(3-(4-Methoxyphenyl)propyl), 1-(3-(4-methoxyphenyl)propyl)cyclopropene], for which the “reddening level (grade 0 to 5)” value was 1 (an area in which the surface of tomato was completely colored in red was 10 to 40%) and 2 (an area in which the surface of tomato was completely colored in red was 40 to 70%) and 3 (an area in which the surface of tomato was completely colored in red was 70% or more and the bottom area remained green) (2×).

In the case of `C1=C(CCCOc2ccccc2)C1` [(3-Phenoxypropyl), 1-(3-phenoxypropyl)cyclopropene], the “reddening level (grade 0 to 5)” value is 1 (an area in which the surface of tomato was completely colored in red was 10 to 40%) (2×) and 2 (an area in which the surface of tomato was completely colored in red was 40 to 70%) and 3 (an area in which the surface of tomato was completely colored in red was 70% or more and the bottom area remained green).
